Laboratory results as given in patent US20050101002A1, “Process for production of low temperature active alkaline protease from a deep-sea fungus” (COUNCIL OF SCIENTIFIC & INDUSTRIAL RESEARCH, priority 2003, published 2005).
“Also recorded” adds a separate entry of the source.

Test system: protease of Aspergillus sp. MTCC 5102
Test: Protease assayed in the presence of EDTA, PMSF, HgCl2
Format: biochemical
Conditions: for Inhibition of protease activity (in words): assayed in the presence of the additive
Procedure: The said fungus Aspergillus sp. MTCC 5102 is grown in malt extract broth containing 2% malt extract and 0.3% peptone in sea water. The 7-day old fungal mat obtained this way was macerated and used as a starter inoculum for the experimental cultures containing glucose or cellulose at a concentration of 1% (w/v). Casein, spray-dried dairy whitener, soybean meal, molasses or corn steep liquor at a 1% concentration was used as the organic nitrogen source. The Czapek Dox broth to which the above mentioned nitrogen-containing substrates were added independently, contained 10 g glucose, 2 g NaNO3, 1 g K2HPO4, 0.5 g MgSO4, 0.5 g KCl and 0.01 g Fe2SO4 L^−1 medium. The pH of the medium was adjusted to 7.0 or 9.0. This medium was prepared with distilled water or sea water. The cultures were grown as shallow static cultures for 4-6 days. The cell-free clear supernatant obtained after filtration through GF/F filters followed by 0.22 μm Nuclepore filters was used as the source of alkaline protease. Protease activity was measured using Azocasein (Sigma Chemicals, Mo, USA) at 2% concentration. Azocasien Units (ACU) released at various temperatures and pH combinations were measured at 440 nm and expressed as an increase in absorbance by 0.001 in 1 minute (Alfredsson, G. A, Gudmundsson H. M., Xiang J. Y., Kristjansson M. M. 1995, Subtilisin-like serine proteases from psychrophilic marine bacteria. J. Mar. Biotech. 3: 71-72). Substrate and enzyme blanks were maintained for all the assays. All the assays were run in triplicates.
The said fungus Aspergillus sp. MTCC 5102 was grown as described in Example 1 and the clear supernatant was used for testing whether the protease enzyme was serine or metalloprotease. For this purpose the enzyme was assayed in the presence of 50 mM […] (EDTA), 2 mM phenylmethylsulfonyl fluoride (PMSF) and 200 μM mercuric chloride (HgCl2).

| SMILES | % inhibition (2 mM) | Residual specific activity (%) (2 mM) | Inhibition of protease activity (in words) | % inhibition (200 μM) | Residual specific activity (%) (200 μM) | % inhibition (50 mM) | Residual specific activity (%) (50 mM) |
| --- | --- | --- | --- | --- | --- | --- | --- |
| O=S(=O)(F)Cc1ccccc1 [PMSF, phenylmethylsulfonyl fluoride] | 100% | 0% | totally inhibited; also recorded: inhibition of the activity |  |  |  |  |
| [Cl][Hg][Cl] [HgCl2, mercuric chloride] |  |  | not inhibited | 14% | 86% |  |  |
| O=C(O)CN(CCN(CC(=O)O)CC(=O)O)CC(=O)O [EDTA, ethylenediamine tetraacetic acid] |  |  | not inhibited; also recorded: no inhibition of activity |  |  | 6% | 94% |
